Source: ChEMBL document CHEMBL1124922 (J Med Chem, 1990)

Legend:
[1] = Evaluated for cytotoxicity under aerobic conditions against AA8 cells using microassay; assay type: cell-based; conditions: Cricetulus griseus, CHO-AA8
[2] = Evaluated for cytotoxicity under aerobic conditions against UV4 cells using microassay; assay type: cell-based; conditions: Cricetulus griseus
[3] = organism: Cricetulus griseus; assay: Evaluated for hypersensitivity factor (HF) (HF = IC50 AA8 / IC50 UV-4) values are intra experiment ratios; assay type: functional

| Structure (SMILES) | IC50 [1] [µM] | IC50 [2] [µM] | Ratio [3] |
| --- | --- | --- | --- |
| O=[N+]([O-])c1ccc(N(CCO)CCO)cc1 | 3200 | – | – |
| CS(=O)(=O)OCCN(CCOS(C)(=O)=O)c1ccccc1 | 13.6 | 0.59 | 30 |
| O=[N+]([O-])c1ccccc1N(CCO)CCO | 7970 | – | – |
| CS(=O)(=O)OCCN(CCOS(C)(=O)=O)c1ccc([N+](=O)[O-])cc1 | – | 1.39 | > 1 |
| O=[N+]([O-])c1cccc(N(CCO)CCO)c1 | 3060 | – | – |
